{"source": "PubChem BioAssay AID1259409", "about": "(Chemical Carcinogenesis Research Information System (CCRIS), 2018)", "origin": "cited, not measured here", "system": "rodent chemically induced tumor inhibition, incidence and multiplicity", "test": "CCRIS tumor inhibitor studies", "note": "Where “and” joins values, the source holds several entries; their conditions need not be identical. Equal entries are not always repeated.", "data": [{"smiles": "NCCCC(N)(C(=O)O)C(F)F", "note": "(centres undefined)", "values": [{"measurement": "tumour outcome (control, treated, inhibition, significance)", "setting": "Carcinogen: DIETHYLNITROSAMINE, 55-18-5, Dose [Inhibitor]: 0, 600 MG/KG BW BY INTRAPERITONEAL INJECTION ON DAYS 13, 14 AND 15 OF AGE THEN 4 G/KG DIET FROM 21 TO 161 DAYS OF AGE (S, Route [Inhibitor]: INTRAPERITONEAL, ORAL, Species: MOUSE, Strain/Sex: C3H/MALE, Target Tissue: Type of Lesion: LIVER: ADENOMA, Dose [Carcinogen]: 4 MG/KG IN TRICAPRYLIN ONCE ON DAY 15 OF AGE, Promoter: NONE USED", "result": "100%, 100%, 0%, not significant"}, {"measurement": "tumour outcome (control, treated, inhibition, significance)", "setting": "Carcinogen: DIETHYLNITROSAMINE, 55-18-5, Dose [Inhibitor]: 0, 1600 MG/KG DIET FOR DURATION OF STUDY BEGINNING 1 WK PRIOR TO CARCINOGEN TREATMENT (STUDY DURATION: 25 WK), Route [Inhibitor]: ORAL, Species: HAMSTER, Strain/Sex: SYRIAN/MALE, Target Tissue: Type of Lesion: LUNG: CARCINOMA, Dose [Carcinogen]: 17.8 MG/KG BW 2/WK FOR 20 WK, Promoter: NONE USED", "result": "50%, 41%, 18%, not significant"}, {"measurement": "tumour outcome (control, treated, inhibition, significance)", "setting": "Carcinogen: DIETHYLNITROSAMINE, 55-18-5, Dose [Inhibitor]: 0, 1600 MG/KG DIET FOR DURATION OF STUDY BEGINNING 1 WK PRIOR TO CARCINOGEN TREATMENT (STUDY DURATION: 25 WK), Route [Inhibitor]: ORAL, Species: HAMSTER, Strain/Sex: SYRIAN/MALE, Target Tissue: Type of Lesion: TRACHEA: PAPILLOMA, Dose [Carcinogen]: 17.8 MG/KG BW 2/WK FOR 20 WK, Promoter: NONE USED", "result": "95%, 83%, 13%, not significant"}, {"measurement": "tumour outcome (control, treated, inhibition, significance)", "setting": "Carcinogen: DIETHYLNITROSAMINE, 55-18-5, Dose [Inhibitor]: 0, 3200 MG/KG DIET FOR DURATION OF STUDY BEGINNING 1 WK PRIOR TO CARCINOGEN TREATMENT (STUDY DURATION: 25 WK), Route [Inhibitor]: ORAL, Species: HAMSTER, Strain/Sex: SYRIAN/MALE, Target Tissue: Type of Lesion: LUNG: CARCINOMA, Dose [Carcinogen]: 17.8 MG/KG BW 2/WK FOR 20 WK, Promoter: NONE USED", "result": "60%, 47%, 22%, not significant"}, {"measurement": "tumour outcome (control, treated, inhibition, significance)", "setting": "Carcinogen: DIETHYLNITROSAMINE, 55-18-5, Dose [Inhibitor]: 0, 3200 MG/KG DIET FOR DURATION OF STUDY BEGINNING 1 WK PRIOR TO CARCINOGEN TREATMENT (STUDY DURATION: 25 WK), Route [Inhibitor]: ORAL, Species: HAMSTER, Strain/Sex: SYRIAN/MALE, Target Tissue: Type of Lesion: TRACHEA: PAPILLOMA, Dose [Carcinogen]: 17.8 MG/KG BW 2/WK FOR 20 WK, Promoter: NONE USED", "result": "100%, 95%, 5%, not significant"}, {"measurement": "tumour outcome (control, treated, inhibition, significance)", "setting": "Carcinogen: METHYLAZOXYMETHANOL ACETATE, 592-62-1, Dose [Inhibitor]: 0, 0.1% IN DRINKING WATER FOR 25 WK BEGINNING 15 WK POST INITIAL CARCINOGEN DOSE (STUDY DURATION: 40 WK), Route [Inhibitor]: ORAL, Species: RAT, Strain/Sex: F344/MALE, Target Tissue: Type of Lesion: LARGE INTESTINE: ADENOCARCINOMA, Dose [Carcinogen]: 20 MG/KG BW 1/WK FOR 3 WK, Promoter: 1,2-DIMETHYLHYDRAZINE, 540-73-8", "result": "16/26 (62%), 11/28 (39%), 37%, not significant"}, {"measurement": "tumour outcome (control, treated, inhibition, significance)", "setting": "Carcinogen: METHYLAZOXYMETHANOL ACETATE, 592-62-1, Dose [Inhibitor]: 0, 0.1% IN DRINKING WATER FOR 25 WK BEGINNING 15 WK POST INITIAL CARCINOGEN DOSE (STUDY DURATION: 40 WK), Route [Inhibitor]: ORAL, Species: RAT, Strain/Sex: F344/MALE, Target Tissue: Type of Lesion: SMALL INTESTINE: ADENOCARCINOMA, Dose [Carcinogen]: 20 MG/KG BW 1/WK FOR 3 WK, Promoter: 1,2-DIMETHYLHYDRAZINE, 540-73-8", "result": "8/26 (31%), 8/25 (29%), 6%, not significant"}, {"measurement": "tumour outcome (control, treated, inhibition, significance)", "setting": "Carcinogen: N-BUTYL-N(4-HYDROXYBUTYL)NITROSAMINE, 3817-11-6, Dose [Inhibitor]: 0, 640 MG/KG DIET FOR 6 MO BEGINNING 1 WK PRIOR TO CARCINOGEN TREATMENT (STUDY DURATION: 6 MO), Route [Inhibitor]: ORAL, Species: MOUSE, Strain/Sex: BDF/MALE, Target Tissue: Type of Lesion: URINARY BLADDER: CARCINOMA, Dose [Carcinogen]: 7.5 MG IN 0.1 ML ETHANOL:WATER (20:80) 1/WK FOR 8 WK, Promoter: NONE USED", "result": "27/70 (39%), 21/72 (29%), 26%, not calculated"}, {"measurement": "tumour outcome (control, treated, inhibition, significance)", "setting": "Carcinogen: N-BUTYL-N-(4-HYDROXYBUTYL)NITROSAMINE, 3817-11-6, Dose [Inhibitor]: 0, 600 MG/KG DIET BEGINNING 1 WK PRIOR TO CARCINOGEN TREATMENT AND CONTINUING FOR DURATION OF STUDY (STUDY DURATION: 180, Route [Inhibitor]: ORAL, Species: MOUSE, Strain/Sex: BDF/MALE, Target Tissue: Type of Lesion: BLADDER: CARCINOMA, Dose [Carcinogen]: 7.5 MG IN 0.1 ML OF ETHANOL:WATER (20:80) 1/WK FOR 8 WK, Promoter: NONE USED", "result": "25/63 (40%), 17/72 (24%), 40%, p<0.05"}, {"measurement": "tumour outcome (control, treated, inhibition, significance)", "setting": "Carcinogen: N-BUTYL-N-(4-HYDROXYBUTYL)NITROSAMINE, 3817-11-6, Dose [Inhibitor]: 0, 1200 MG/KG DIET BEGINNING 1 WK PRIOR TO CARCINOGEN TREATMENT AND CONTINUING FOR DURATION OF STUDY (STUDY DURATION: 18, Route [Inhibitor]: ORAL, Species: MOUSE, Strain/Sex: BDF/MALE, Target Tissue: Type of Lesion: BLADDER: CARCINOMA, Dose [Carcinogen]: 7.5 MG IN 0.1 ML OF ETHANOL:WATER (20:80) 1/WK FOR 8 WK, Promoter: NONE USED", "result": "28/65 (43%), 14/65 (22%), 49%, p<0.01"}, {"measurement": "tumour outcome (control, treated, inhibition, significance)", "setting": "Carcinogen: N-BUTYL-N-(4-HYDROXYBUTYL)NITROSAMINE, 3817-11-6, Dose [Inhibitor]: 0, 1280 MG/KG DIET FOR 6 MO BEGINNING 1 WK PRIOR TO CARCINOGEN TREATMENT (STUDY DURATION: 6 MO), Route [Inhibitor]: ORAL, Species: MOUSE, Strain/Sex: BDF/MALE, Target Tissue: Type of Lesion: URINARY BLADDER: CARCINOMA, Dose [Carcinogen]: 7.5 MG IN 0.1 ML ETHANOL:WATER (20:80) 1/WK FOR 8 WK, Promoter: NONE USED", "result": "30/73 (41%), 15/73 (21%), 49%, p<0.01"}, {"measurement": "tumour outcome (control, treated, inhibition, significance)", "setting": "Carcinogen: N-BUTYL-N-(4-HYDROXYBUTYL)NITROSOAMINE, 3817-11-6, Dose [Inhibitor]: 0.2% IN DRINKING WATER BEGINNING POST CARCINOGEN DOSE AND CONTINUING FOR 40 WK FOLLOWED BY TAP WATER FOR DURATION OF STU, Route [Inhibitor]: ORAL, Species: RAT, Strain/Sex: F344/MALE, Target Tissue: Type of Lesion: URINARY BLADDER: CARCINOMA, Dose [Carcinogen]: 0.05% IN DRINKING WATER FOR 6 WK, Promoter: NONE USED", "result": "19/19 (100%), 16/18 (89%), 11%, not significant and 24/24 (100%), 23/25 (92%), 8%, not significant"}, {"measurement": "tumour outcome (control, treated, inhibition, significance)", "setting": "Carcinogen: N-BUTYL-N-(4-HYDROXYBUTYL)NITROSOAMINE, 3817-11-6, Dose [Inhibitor]: 0.2% IN DRINKING WATER BEGINNING POST CARCINOGEN DOSE AND CONTINUING FOR DURATION OF STUDY (STUDY DURATION: 75 WK), Route [Inhibitor]: ORAL, Species: RAT, Strain/Sex: F344/MALE, Target Tissue: Type of Lesion: URINARY BLADDER: CARCINOMA, Dose [Carcinogen]: 0.05% IN DRINKING WATER FOR 6 WK, Promoter: NONE USED", "result": "16/25 (64%), 11/24 (46%), 28%, not significant (at 40 wk post carcinogen dose) and 19/19 (100%), 12/19 (63%), 37%, p<0.017 (at 60 wk post carcinogen dose) and 24/24 (100%), 19/20 (95%), 5%, not significant (at 75 wk post carcinogen dose)"}, {"measurement": "tumour outcome (control, treated, inhibition, significance)", "setting": "Carcinogen: N-ETHYL-N-NITROSOUREA, 759-73-9, Dose [Inhibitor]: 0, 250 MG/KG DIET FOR DURATION OF STUDY BEGINNING POST CARCINOGEN DOSE (STUDY DURATION: 35 WK), Route [Inhibitor]: ORAL, Species: MOUSE, Strain/Sex: PIM/MALE, Target Tissue: Type of Lesion: LYMPHATIC SYSTEM: LYMPHOMA, Dose [Carcinogen]: 50 MG/KG BW ONCE, Promoter: NONE USED", "result": "21/40 (53%), 15/29 (52%), 2%, not significant"}]}]}
